This experiment concerns the target T1, HDAC6 enzyme (Homo sapiens, UniProt Q9UBN7).
T1 construct: transducing full length HDAC6 gene into Sf-9 insect cells; GST; purchased SignalChem; host or cells: Sf-9 insect cells
T1 sequence (Q9UBN7 1-1215): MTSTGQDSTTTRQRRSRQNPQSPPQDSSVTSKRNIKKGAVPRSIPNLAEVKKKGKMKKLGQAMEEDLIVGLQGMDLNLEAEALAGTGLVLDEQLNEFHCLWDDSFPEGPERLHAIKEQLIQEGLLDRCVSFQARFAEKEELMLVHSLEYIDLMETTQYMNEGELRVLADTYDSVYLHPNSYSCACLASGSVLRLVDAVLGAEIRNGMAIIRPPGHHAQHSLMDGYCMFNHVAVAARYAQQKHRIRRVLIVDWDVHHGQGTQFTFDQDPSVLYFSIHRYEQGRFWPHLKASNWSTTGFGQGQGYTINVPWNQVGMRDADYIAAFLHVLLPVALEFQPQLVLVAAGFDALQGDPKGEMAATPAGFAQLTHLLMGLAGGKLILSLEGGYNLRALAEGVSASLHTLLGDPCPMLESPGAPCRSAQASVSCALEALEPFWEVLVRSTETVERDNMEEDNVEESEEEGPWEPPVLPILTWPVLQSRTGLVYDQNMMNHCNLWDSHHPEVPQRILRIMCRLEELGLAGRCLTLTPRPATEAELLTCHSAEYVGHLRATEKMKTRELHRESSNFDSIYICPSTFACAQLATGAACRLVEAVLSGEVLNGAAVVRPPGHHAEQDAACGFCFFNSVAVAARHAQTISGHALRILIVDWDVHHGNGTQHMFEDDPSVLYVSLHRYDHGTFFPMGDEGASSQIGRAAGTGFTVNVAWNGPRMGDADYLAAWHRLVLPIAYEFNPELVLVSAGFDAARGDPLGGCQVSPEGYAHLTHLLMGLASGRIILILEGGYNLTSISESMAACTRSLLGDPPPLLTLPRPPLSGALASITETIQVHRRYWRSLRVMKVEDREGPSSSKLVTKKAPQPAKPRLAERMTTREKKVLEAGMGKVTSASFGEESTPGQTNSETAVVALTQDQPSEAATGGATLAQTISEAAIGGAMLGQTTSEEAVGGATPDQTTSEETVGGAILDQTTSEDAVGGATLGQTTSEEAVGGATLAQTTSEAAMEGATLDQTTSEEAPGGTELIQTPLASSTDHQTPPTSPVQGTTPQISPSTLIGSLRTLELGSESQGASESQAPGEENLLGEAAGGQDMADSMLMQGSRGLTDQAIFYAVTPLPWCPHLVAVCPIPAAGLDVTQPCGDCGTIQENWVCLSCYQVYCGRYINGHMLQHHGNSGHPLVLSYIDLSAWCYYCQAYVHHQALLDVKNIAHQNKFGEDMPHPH
Description: HDAC6 enzyme inhibitory activity (HDAC-Glo I/II Assay kit). As to conditions: 10 μM; wells without enzyme = 100% inhibition; read-out: HDAC6 inhibitory rate (%) (10 μM). The format is biochemical. An outline of the steps:
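Inhibition is calculated as relative activity, taking luminescence in enzyme-free wells as complete inhibition. The enzyme, full-length and GST-purified after Sf-9 expression, was exposed to compound for 60 min at room temperature before a 20 min HDAC-Glo reaction.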
With `CC(C)(C)OC(=O)N1CCC[C@@H]1CN1Cc2c(F)cc(-c3nnc(C(F)F)o3)cc2C1=O` [Example 263, tert-butyl (2R)-2-((6-(5-(difluoromethyl)-1,3,4-oxadiazol-2-yl)-4-fluoro-1-oxo-1,3-dihydro-2H-isoindol-2-yl)methyl)-pyrrolidine-1-carboxylate], the inhibition at 10 µM was 99%. For `CC(=O)N(c1ccccn1)[C@@H]1CCCC[C@H]1N1Cc2ccc(-c3nnc(C(F)F)o3)cc2C1=O` [Example 264, N-((1R,2R)-2-(6-(5-(difluoromethyl)-1,3,4-oxadiazol-2-yl)-1-oxo-1,3-dihydro-2H-isoindol-2-yl)cyclohexyl)-N-(pyridin-2-yl) acetamide], the inhibition at 10 µM was found to be 101%.

As to `O=C1c2cc(-c3nnc(C(F)F)o3)cc(F)c2CN1C[C@H]1COCCN1S(=O)(=O)c1cccc(F)c1` [Example 265, 6-(5-(difluoromethyl)-1,3,4-oxadiazol-2-yl)-4-fluoro-2-(((3S)-4-((3-fluorophenyl)-sulfonyl)morpholin-3-yl)-methyl)isoindolin-1-one], the inhibition at 10 µM turned out to be 98%. Turning to `COc1cccc(CN2Cc3ncc(-c4nnc(C(F)F)o4)cc3C2=O)c1` [Example 266, 3-(5-(difluoromethyl)-1,3,4-oxadiazol-2-yl)-6-(3-methoxybenzyl)-6,7-dihydro-5H-pyrrolo[3,4-b]-pyridin-5-one], the inhibition at 10 µM was 99%.

As for `N#Cc1cccc(-c2ccc(Cl)cc2N2Cc3ccc(-c4nnc(C(F)F)o4)cc3C2=O)c1` [Example 267, 4′-chloro-2′-(6-(5-(difluoro-methyl)-1,3,4-oxadiazol-2-yl)-1-oxo-1,3-dihydro-2H-isoindol-2-yl)biphenyl-3-carbonitrile], the inhibition at 10 µM is 100%. In the case of `CC(C)(OC(=O)N[C@@H]1CCCC[C@H]1N1Cc2ncc(-c3nnc(C(F)F)o3)cc2C1=O)C(F)(F)F` [Example 268, 1,1,1-trifluoro-2-methylpropan-2-yl ((1R,2R)-2-(3-(5-(difluoromethyl)-1,3,4-oxadiazol-2-yl)-5-oxo-5,7-dihydro-6H-pyrrolo[3,4-b]pyridin-6-yl)cyclohexyl)carbamate], the inhibition at 10 µM is 100%.

Consider `O=C1CCCN1CC(c1ccccc1)N1Cc2ncc(-c3nnc(C(F)F)o3)cc2C1=O` (stereo not shown) [Example 269, 3-(5-(difluoromethyl)-1,3,4-oxadiazol-2-yl)-6-(2-(2-oxopyrrolidin-1-yl)-1-phenylethyl)-6,7-dihydro-5H-pyrrolo[3,4-b]pyridin-5-one], for which the inhibition at 10 µM turned out to be 99%.

For the compound `Cn1cc(-c2cc(Cl)ccc2N2Cc3ccc(-c4nnc(C(F)F)o4)cc3C2=O)cn1` [Example 270, 2-(4-chloro-2-(1-methyl-1H-pyrazol-4-yl)phenyl)-6-(5-(difluoromethyl)-1,3,4-oxadiazol-2-yl)-isoindolin-1-one], the inhibition at 10 µM is 99%.

Regarding `Cn1cc(-c2cc(F)ccc2N2Cc3ccc(-c4nnc(C(F)F)o4)cc3C2=O)cn1` [Example 271, 6-(5-(difluoromethyl)-1,3,4-oxadiazol-2-yl)-2-(4-fluoro-2-(1-methyl-1H-pyrazol-4-yl)phenyl)isoindolin-1-one], the inhibition at 10 µM amounted to 100%. The same measure for `COc1ccc(CN2Cc3ncc(-c4nnc(C(F)F)o4)cc3C2=O)c(OC)c1` [Example 272, 3-(5-(difluoromethyl)-1,3,4-oxadiazol-2-yl)-6-(2,4-dimethoxybenzyl)-6,7-dihydro-5H-pyrrolo-[3,4-b]pyridin-5-one]: 100%; for `O=C1c2cc(-c3nnc(C(F)F)o3)cnc2CN1Cc1cccc(F)c1` [Example 273, 3-(5-(difluoromethyl)-1,3,4-oxadiazol-2-yl)-6-(3-fluorobenzyl)-6,7-dihydro-5H-pyrrolo[3,4-b]pyridin-5-one]: 97%; for `O=C1c2cc(-c3nnc(C(F)F)o3)cc(F)c2CN1C[C@H]1CCCN1S(=O)(=O)C1CC1` [Example 274, 2-(((2R)-1-(cyclopropyl-sulfonyl)pyrrolidin-2-yl)methyl)-6-(5-(difluoro-methyl)-1,3,4-oxadiazol-2-yl)-4-fluoroisoindolin-1-one]: 99%. Consider `CC(C)(C)OC(=O)N1CCC[C@H]1CN1Cc2c(F)cc(-c3nnc(C(F)F)o3)cc2C1=O` [Example 275, tert-butyl (2S)-2-((6-(5-(difluoromethyl)-1,3,4-oxadiazol-2-yl)-4-fluoro-1-oxo-1,3-dihydro-2H-isoindol-2-yl)methyl)-pyrrolidine-1-carboxylate], for which the inhibition at 10 µM was determined as 98%. For `O=C1c2cc(-c3nnc(C(F)F)o3)ccc2CN1c1ccccc1-c1ccc(F)cc1` [Example 276, 6-(5-(difluoromethyl)-1,3,4-oxadiazol-2-yl)-2-(4′-fluorobiphenyl-2-yl)-isoindolin-1-one], the inhibition at 10 µM came to 98%. For `O=C1c2cc(-c3nnc(C(F)F)o3)ccc2CN1c1ccccc1-c1ccccc1F` [Example 277, 6-(5-(difluoromethyl)-1,3,4-oxadiazol-2-yl)-2-(2'-fluorobiphenyl-2-yl)isoindolin-1-one], the inhibition at 10 µM was found to be 97%. Turning to `O=C1c2cc(-c3nnc(C(F)F)o3)ccc2CN1c1ccccc1-c1cccc(F)c1` [Example 278, 6-(5-(difluoromethyl)-1,3,4-oxadiazol-2-yl)-2-(3′-fluorobiphenyl-2-yl)-isoindolin-1-one], the inhibition at 10 µM is 99%. With `N#Cc1ccc(-c2ccccc2N2Cc3ccc(-c4nnc(C(F)F)o4)cc3C2=O)cc1` [Example 279, 2′-(6-(5-(difluoromethyl)-1,3,4-oxadiazol-2-yl)-1-oxo-1,3-dihydro-2H-isoindol-2-yl)-biphenyl-4-carbonitrile], the inhibition at 10 µM worked out at 89%. Take `CCc1ncccc1-c1ccccc1N1Cc2ccc(-c3nnc(C(F)F)o3)cc2C1=O` [Example 280, 6-(5-(difluoromethyl)-1,3,4-oxadiazol-2-yl)-2-(2-(2-ethylpyridin-3-yl)phenyl)-isoindolin-1-one]: the inhibition at 10 µM was found to be 99%. With `O=C1c2cc(-c3nnc(C(F)F)o3)ccc2CN1c1ccccc1-c1ccccc1Cl` [Example 281, 2-(2′-chlorobiphenyl-2-yl)-6-(5-(difluoromethyl)-1,3,4-oxadiazol-2-yl)isoindolin-1-one], the inhibition at 10 µM was determined as 98%. To `O=C1c2cc(-c3nnc(C(F)F)o3)ccc2CN1c1ccccc1-c1ccc(Cl)cc1` [Example 282, 2-(4′-chlorobiphenyl-2-yl)-6-(5-(difluoromethyl)-1,3,4-oxadiazol-2-yl)isoindolin-1-one] belongs 98%; to `O=C1c2cc(-c3nnc(C(F)F)o3)ccc2CN1c1ccccc1-c1cccc(Cl)c1` [Example 283, 2-(3′-chlorobiphenyl-2-yl)-6-(5-(difluoromethyl)-1,3,4-oxadiazol-2-yl)isoindolin-1-one], 99%. Turning to `O=C1c2cc(-c3nnc(C(F)F)o3)ccc2CN1c1ccccc1-c1cc(F)cc(F)c1` [Example 284, 2-(3′,5′-difluorobiphenyl-2-yl)-6-(5-(difluoromethyl)-1,3,4-oxadiazol-2-yl)isoindolin-1-one], the inhibition at 10 µM was 101%. Regarding `O=C1c2cc(-c3nnc(C(F)F)o3)ccc2CN1c1ccccc1-c1ccc(C2CC2)cc1` [Example 285, 2-(4′-cyclopropylbiphenyl-2-yl)-6-(5-(difluoromethyl)-1,3,4-oxadiazol-2-yl)isoindolin-1-one], the inhibition at 10 µM was found to be 95%. On to `O=C1c2cc(-c3nnc(C(F)F)o3)ccc2CN1c1ccccc1-c1cccc(C2CC2)c1` [Example 286, 2-(3′-cyclopropylbiphenyl-2-yl)-6-(5-(difluoromethyl)-1,3,4-oxadiazol-2-yl)isoindolin-1-one], for which the inhibition at 10 µM was determined as 99%. On to `O=C1c2cc(-c3nnc(C(F)F)o3)ccc2CN1c1ccccc1-c1ccc2c(c1)CCO2` [Example 287, 6-(5-(difluoromethyl)-1,3,4-oxadiazol-2-yl)-2-(2-(2,3-dihydro-1-benzofuran-5-yl)phenyl)isoindolin-1-one], for which the inhibition at 10 µM came out at 100%.

Values taken from patent publication US10435399B2, “HDAC6 inhibitory heterocyclic compound” (TAKEDA PHARMACEUTICAL COMPANY LIMITED, priority 2017, dated 2019).
